Measured values as given in patent US10226041B2, “Compositions and methods for improving the quality of processed sperm” (Inguran, LLC, priority 2011, dated 2019).
Where “and” joins values, the source holds several entries; their conditions need not be identical. Identical values can stand only once.

Key:
Type in all cases: cell-based, bovine
sex-sorted sperm cells [1] = test: Percent intact acrosomes (PIA) of sex sorted sperm post-thaw; settings: for PIA: 3 step
Description: In the tables below: VAP (average path velocity (μm/s)); VSL (straight-line velocity (μm/s)); VCL (curvilinear velocity (μm/s)); ALH (average lateral head displacement (μm)); BCF (the number of times the sperm head crosses the mean path/s in Hz); STR (percent straight-line sperm motility); LIN (percent linear sperm motility); PIA (percent intact acrosomes); motile (percent motile sperm); and progressive (percent progressively motile sperm).

[2] = test system: slaughterhouse oocytes fertilized with sex sorted sperm; test: IVF: development of eggs fertilized with OSR treated sex sorted sperm; settings: 3 step
Description: 1. Oocyte Collection. Collect slaughterhouse oocytes, wash 1× with about 3 mL Hepes washing media and with 1× with TCM-199 (Invitrogen, Carlsbad, Calif.)+10% Fetal Bovine Serum (FBS). Culture in maturation media for 22 hrs in a CO2 incubator at 38.5° C. In one embodiment, the maturation media contains TCM-199, FBS, pyruvate, chorionic gonadotropin (e.g., Chorulon (Intervet, Summit N.J.)), follicle stimulating hormone (FSH) (e.g., Folltropin (Bioniche, Belleville, Canada)), estradiol, and at least one antibiotic. In a further embodiment, Amikacin (Sigma-Aldrich, St. Louis, Mo.) can be used as the antibiotic. In another embodiment, the maturation media may also comprise luteinizing hormone.
2. In Vitro Fertilization. Trim away cumulus cells from matured oocytes. Transfer them to a fertilization dish and return to the CO2 incubator. Thaw frozen semen straws using standard procedures, centrifuge in […], of Pure Sperm gradient (Nidacon, Molndal, Sweden), or a percoll or similar gradient at 2500 RPM for 10 minutes to remove egg components, glycerol and other debris. Remove supernatant, leaving a loose pellet of live sperm. Combine pellets using a small amount of fertilization media and repellet at 1500 RPM for 3 minutes. Carefully remove supernatant. Then gently mix the pellet. After determining the desired insemination dose, inseminate the oocytes by adding sperm to the pellet, then culture in a dish and return to the CO2 incubator for about 18-22 hours.
3. In Vitro Culture. Remove presumptive zygotes from the fertilization dish and transfer into a sterile 1.5 mL eppendorf tube. Allow zygotes to form a loose pellet and remove excess media to form a 1:1 ratio of pellet and solution. Rinse the eppendorf tube with TCM-199, place contents into a dish and wash with BSA media. Then culture presumptive zygotes (discard disfigured oocytes, as well as oocytes with yellow colored cytoplasm or vacuolated cytoplasm) in a dual gas incubator (5% CO2, 5% O2) at 38.5° C. for about 48 hours.
4. Co-Culture. Transfer cleaved zygotes to co-culture dishes comprising the cumulus cells from the mature oocytes and FBS media topped with mineral oil, and incubate in a CO2 incubator at 38.5° C. until needed.
An experiment was designed to test the effect of OSR treated sperm cells on the development of eggs fertilized with those sperm cells. In this experiment, bull semen from two bulls was sex sorted with flow cytometry, with vitamin B12 present at equal concentrations in the media used to stain the sperm cells, in the catch fluid of the collecting vessel and in the cryoprotectant extender prior to freezing the sex sorted sample (3 step). For each bull, three different concentrations of vitamin B12 were tested: 0.05 mg/ml, 0.15 mg/ml and 0.25 mg/ml. The control samples were not treated with vitamin B12.
Slaughterhouse oocytes were collected and washed 1× with about 3 mL Hepes washing media and with 1× with TCM-199+10% FBS. The oocytes were then cultured in maturation media for 22 hrs in a CO2 incubator at 38.5° C. Cumulus cells were trimmed away from matured oocytes, transferred to a fertilization dish, and returned to the CO2 incubator.
Frozen semen straws were thawed using standard procedures and centrifuged in […], of Pure Sperm gradient at 2500 RPM for 10 minutes in order to remove egg, glycerol and other debris. The supernatant was removed, leaving a loose pellet of live sperm. Pellets were combined using a small amount of fertilization media and repelleted at 1500 RPM for 3 minutes. The supernatant was then carefully removed and the pellet gently mixed. After determining the desired insemination dose, the matured oocytes were then inseminated by adding sperm to the pellet, cultured in a dish and returned to the CO2 incubator for about 18-22 hours.
Presumptive zygotes were removed from the fertilization dish and transferred into a sterile 1.5 ml eppendorf tube. […]

sex-sorted sperm cells [3] = test: CASA post-thaw motility of sex sorted bull sperm treated with OSR; settings: 3 hr; 1 step-stain (+−−); Bull C (Jersey), Trial 2
[4] = 0.05 mg/ml, Table 4 replicates, Bulls A, B
[5] = 0.5 mg/ml, Table 5 Total/Avg per bull (A Holstein, B Jersey), Holstein bull
[6] = 0.5 mg/ml, Table 5 Total/Avg per bull (A Holstein, B Jersey), Jersey bull
[7] = 0.5 mg/ml, Table 5 replicates, Bull A (Holstein), Bull B (Jersey), Holstein bull
[8] = 0.5 mg/ml, Table 5 replicates, Bull A (Holstein), Bull B (Jersey), Jersey bull

O=C(O)CCC(=O)C(=O)O [AKG, Alpha-ketoglutarate]
PIA (sex-sorted sperm cells [1]; Holstein 3 hr post-thaw (1st block), .25 mg/ml): 89 | PIA (sex-sorted sperm cells [1]; Holstein 3 hr post-thaw (1st block), .35 mg/ml): 80 | PIA (sex-sorted sperm cells [1]; Holstein 3 hr post-thaw (1st block), .45 mg/ml): 80 | PIA (sex-sorted sperm cells [1]; Holstein 3 hr post-thaw (2nd block), .25 mg/ml): 89 | PIA (sex-sorted sperm cells [1]; Holstein 3 hr post-thaw (2nd block), .35 mg/ml): 80 | PIA (sex-sorted sperm cells [1]; Holstein 3 hr post-thaw (2nd block), .45 mg/ml): 80 | PIA (sex-sorted sperm cells [1]; Holstein 6 hr post-thaw (1st block), .25 mg/ml): 73 | PIA (sex-sorted sperm cells [1]; Holstein 6 hr post-thaw (1st block), .35 mg/ml): 85 | PIA (sex-sorted sperm cells [1]; Holstein 6 hr post-thaw (1st block), .45 mg/ml): 79 | PIA (sex-sorted sperm cells [1]; Holstein 6 hr post-thaw (2nd block), .25 mg/ml): 73 | PIA (sex-sorted sperm cells [1]; Holstein 6 hr post-thaw (2nd block), .35 mg/ml): 85 | PIA (sex-sorted sperm cells [1]; Holstein 6 hr post-thaw (2nd block), .45 mg/ml): 79 | PIA (sex-sorted sperm cells [1]; Jersey 3 hr post-thaw, .25 mg/ml): 62 | PIA (sex-sorted sperm cells [1]; Jersey 3 hr post-thaw, .35 mg/ml): 54 | PIA (sex-sorted sperm cells [1]; Jersey 3 hr post-thaw, .45 mg/ml): 71

vitamin B12
PIA (percent intact acrosomes) (sex-sorted sperm cells [1]; 0.5 mg/ml, 2 step F, 3 hrs post-thaw, Bulls 1-5): 84% and 87% and 88% and 79% and 74% | PIA (sex-sorted sperm cells [1]; .15 mg/ml, Holstein, 1M/straw, 3 hr post-thaw): 66 | PIA (sex-sorted sperm cells [1]; .15 mg/ml, Holstein, 2.1M/straw, 3 hr post-thaw): 72 | PIA (sex-sorted sperm cells [1]; .15 mg/ml, Jersey, 2.1M/straw, 3 hr post-thaw): 63 | PIA (sex-sorted sperm cells [1]; .25 mg/ml, Holstein, 1M/straw, 3 hr post-thaw): 58 | PIA (sex-sorted sperm cells [1]; .25 mg/ml, Holstein, 2.1M/straw, 3 hr post-thaw): 76 | PIA (sex-sorted sperm cells [1]; .25 mg/ml, Holstein, 5M/straw, 3 hr post-thaw): 68 | PIA (sex-sorted sperm cells [1]; .25 mg/ml, Jersey, 2.1M/straw, 3 hr post-thaw): 78 | PIA (sex-sorted sperm cells [1]; .35 mg/ml, Holstein, 1M/straw, 3 hr post-thaw): 70 | PIA (sex-sorted sperm cells [1]; .35 mg/ml, Holstein, 2.1M/straw, 3 hr post-thaw): 60 | PIA (sex-sorted sperm cells [1]; .35 mg/ml, Holstein, 5M/straw, 3 hr post-thaw): 69 | PIA (sex-sorted sperm cells [1]; .5 mg/ml, Holstein, 5M/straw, 3 hr post-thaw): 50 | 4-2C, Total/Avg ([2]; 0.05 mg/ml, Table 4 Total/Avg per bull (A, B)): 66 and 63 | 4-2C (zygotes at 2 cell to 4 cell transition 48 hours after IVF) [2, 4]: 20 (2×) and 26 and 18 and 23 and 22 | 8C % (zygotes having 8 cells 48 hours after IVF) [2, 4]: 3.4% and 9.5% and 11.7% and 44.4% and 29.3% and 29.0% | 8C (zygotes with 8 cells 48 hours after IVF) [2, 4]: 3 and 9 and 11 and 40 and 27 (2×) | % Clv (percent cleaved 48 hours after IVF) [2, 4]: 26.4% and 36.8% and 33.0% and 64.4% and 54.3% and 52.7% | Blast % (cultured zygotes resulting in blastocyst formation) [2, 4]: 1.1% and 2.1% and 4.3% and 21.1% and 16.3% and 22.6% | C1 (expanded, hatching and hatched blastocysts 7 days after IVF) [2, 4]: 0 (2×) and 1 and 2 and 4 and 5 | C1− (blastocysts 7 days after IVF) [2, 4]: 0 (2×) and 3 (2×) and 4 and 2 | C2 (early blastocysts and compact morulas 7 days after IVF) [2, 4]: 1 (3×) and 13 (2×) and 9 | Hatch # (embryos shedding the zona, 8.5 days after IVF) [2, 4]: 0 and 1 (2×) and 9 and 7 and 8 | Hatch % (embryos that shed the zona) [2, 4]: 0.0% and 50.0% and 25.0% and 47.4% and 46.7% and 38.1% | Total Embs (total number of blastocysts) [2, 4]: 1 and 2 and 4 and 19 and 15 and 21 | 4-2C, Total/Avg [2, 5]: 72 | 8C %, Total/Avg [2, 5]: 35.1% | 8C, Total/Avg [2, 5]: 99 | C1−, Total/Avg [2, 5]: 17 | C2, Total/Avg [2, 5]: 18 | Hatch #, Total/Avg [2, 5]: 16 | Total Embs, Total/Avg [2, 5]: 41 | 4-2C, Total/Avg [2, 6]: 86 | 8C %, Total/Avg [2, 6]: 35.4% | 8C, Total/Avg [2, 6]: 104 | C1−, Total/Avg [2, 6]: 22 | C2, Total/Avg [2, 6]: 13 | Hatch #, Total/Avg [2, 6]: 20 | Total Embs, Total/Avg [2, 6]: 52 | 4-2C (zygotes at 2 cell to 4 cell transition 48 hours after IVF) [2, 7]: 25 and 29 and 18 | 8C % (zygotes having 8 cells 48 hours after IVF) [2, 7]: 36.2% and 31.6% and 37.6% | 8C (zygotes with 8 cells 48 hours after IVF) [2, 7]: 34 and 30 and 35 | % Clv (percent cleaved 48 hours after IVF) [2, 7]: 62.8% and 62.1% and 57.0% | Blast % (cultured zygotes resulting in blastocyst formation) [2, 7]: 6.4% and 15.8% and 21.5% | C1 (expanded, hatching and hatched blastocysts 7 days after IVF) [2, 7]: 0 and 1 and 5 | C1− (blastocysts 7 days after IVF) [2, 7]: 3 and 7 (2×) | C2 (early blastocysts and compact morulas 7 days after IVF) [2, 7]: 3 and 7 and 8 | Hatch # (embryos shedding the zona, 8.5 days after IVF) [2, 7]: 1 and 4 and 11 | Hatch % (embryos that shed the zona) [2, 7]: 16.7% and 26.7% and 55.0% | Total Embs (total number of blastocysts) [2, 7]: 6 and 15 and 20 | 4-2C (zygotes at 2 cell to 4 cell transition 48 hours after IVF) [2, 8]: 40 and 31 and 15 | 8C % (zygotes having 8 cells 48 hours after IVF) [2, 8]: 34.0% and 25.3% and 46.5% | 8C (zygotes with 8 cells 48 hours after IVF) [2, 8]: 34 and 24 and 46 | % Clv (percent cleaved 48 hours after IVF) [2, 8]: 74.0% and 57.9% and 61.6% | Blast % (cultured zygotes resulting in blastocyst formation) [2, 8]: 11.0% and 24.2% and 18.2% | C1 (expanded, hatching and hatched blastocysts 7 days after IVF) [2, 8]: 4 and 5 and 8 | C1− (blastocysts 7 days after IVF) [2, 8]: 6 and 11 and 5 | C2 (early blastocysts and compact morulas 7 days after IVF) [2, 8]: 1 and 7 and 5 | Hatch # (embryos shedding the zona, 8.5 days after IVF) [2, 8]: 5 and 6 and 9 | Hatch % (embryos that shed the zona) [2, 8]: 45.5% and 26.1% and 50.0% | Total Embs (total number of blastocysts) [2, 8]: 11 and 23 and 18 | % Motility (sex-sorted sperm cells [3]): 37%
